Source: ChEMBL document CHEMBL1201862, “PubChem BioAssay data set” (2004)
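Protocol summary: plate cells (96-well), add compound at 5 concentrations, incubate 48 h, interpolate endpoints linearly. GI50: concentration for 50% inhibition of growth.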 Activity calls are given as the source filed them. No stated cut-off is given here; in the data, active = GI50 up to about 1.1 µM and inactive = higher.

How the values were obtained:
Test in all cases: DTP human tumour cell line panel, 48 h
786-0 = test system: 786-0
A549 = test system: A549
BT-549 = test system: BT-549
DU-145 = test system: DU-145
HCC 2998 = test system: HCC 2998
HCT-15 = test system: HCT-15
HOP-92 = test system: HOP-92
HT-29 = test system: HT-29
MCF7 = test system: MCF7
Malme-3M = test system: Malme-3M
NCI-H460 = test system: NCI-H460
NCI-H522 = test system: NCI-H522
OVCAR-4 = test system: OVCAR-4
RPMI-8226 = test system: RPMI-8226
SK-OV-3 = test system: SK-OV-3
SN12C = test system: SN12C
SNB-19 = test system: SNB-19
SR = test system: SR
UACC-62 = test system: UACC-62
UO-31 = test system: UO-31

Compound | GI50 (786-0) | GI50 (A549) | GI50 (BT-549) | GI50 (DU-145) | GI50 (HCC 2998) | GI50 (HCT-15) [µM] | GI50 (HOP-92) | GI50 (HT-29) | GI50 (MCF7) | GI50 (Malme-3M) | GI50 (NCI-H460) | GI50 (NCI-H522) | GI50 (OVCAR-4) | GI50 (RPMI-8226) | GI50 (SK-OV-3) | GI50 (SN12C) | GI50 (SNB-19) | GI50 (SR) | GI50 (UACC-62) | GI50 (UO-31)
CCOC(=O)/C=C\C(C#N)(C#N)/N=C/c1ccsc1 | 2.24 µM (inactive) | 19.1 µM (inactive) | 5.42 µM (inactive) | 16.5 µM (inactive) | 16 µM (inactive) | 2.96 | 2.05 µM (inactive) | 11.1 µM (inactive) | 2.51 µM (inactive) | 2.29 µM (inactive) | 20.5 µM (inactive) | 0.9 µM (active) | 6.43 µM (inactive) | 1.33 µM (inactive) | 20.8 µM (inactive) | 18.2 µM (inactive) | 23.1 µM (inactive) | 1.04 µM (active) | 17 µM (inactive) | 2.7 µM (inactive)
CCCCCCCCCCCCCCCCNc1ccc2c(c1)OCCOCCOCCOCCO2 | 3.64 µM (inactive) | 3.78 µM (inactive) | 3.44 µM (inactive) | 4.24 µM (inactive) | 4.03 µM (inactive) | 2.88 | 2.37 µM (inactive) | 2.75 µM (inactive) | 3.61 µM (inactive) | 3.56 µM (inactive) | 3.1 µM (inactive) | 2.33 µM (inactive) | 4.02 µM (inactive) | 1.67 µM (inactive) | 3.4 µM (inactive) | 2.92 µM (inactive) | 3.37 µM (inactive) | 3.29 µM (inactive) | 2.97 µM (inactive) | 2.77 µM (inactive)
NCc1nnn(Cc2ccccc2)c1N | > 100 µM (inactive) | > 100 µM (inactive) | > 100 µM (inactive) | > 100 µM (inactive) | – | > 100 | > 100 µM (inactive) | > 100 µM (inactive) | > 100 µM (inactive) | > 100 µM (inactive) | > 100 µM (inactive) | > 100 µM (inactive) | > 100 µM (inactive) | > 100 µM (inactive) | > 100 µM (inactive) | > 100 µM (inactive) | > 100 µM (inactive) | > 100 µM (inactive) | > 100 µM (inactive) | –
COc1cc(C(=O)OC2CC34CCNC35CC(OC5(OC)C2O)c2cc3c(cc24)OCO3)ccc1O (configuration not stated) | > 100 µM (inactive) | > 100 µM (inactive) | > 100 µM (inactive) | > 100 µM (inactive) | > 100 µM (inactive) | > 100 | > 100 µM (inactive) | > 100 µM (inactive) | > 100 µM (inactive) | 8.11 µM (inactive) | > 100 µM (inactive) | > 100 µM (inactive) | > 100 µM (inactive) | > 100 µM (inactive) | > 100 µM (inactive) | > 100 µM (inactive) | > 100 µM (inactive) | > 100 µM (inactive) | > 100 µM (inactive) | –
O=C(O)CN(CC(=O)O)Cc1ccn(-c2cccc(-n3ccc(CN(CC(=O)O)CC(=O)O)n3)n2)n1 | > 100 µM (inactive) | 17.4 µM (inactive) | > 100 µM (inactive) | > 100 µM (inactive) | > 100 µM (inactive) | > 100 | > 100 µM (inactive) | > 100 µM (inactive) | > 100 µM (inactive) | > 100 µM (inactive) | > 100 µM (inactive) | > 100 µM (inactive) | – | > 100 µM (inactive) | > 100 µM (inactive) | > 100 µM (inactive) | > 100 µM (inactive) | > 100 µM (inactive) | > 100 µM (inactive) | 93.8 µM (inactive)
COc1cc2c[n+](C)c3c(c2cc1OC)Cc1cc2c(cc1-3)OCO2 | > 100 µM (inactive) | > 100 µM (inactive) | 90.2 µM (inactive) | > 100 µM (inactive) | – | > 100 | > 100 µM (inactive) | > 100 µM (inactive) | > 100 µM (inactive) | > 100 µM (inactive) | – | 52.4 µM (inactive) | 87.3 µM (inactive) | 65 µM (inactive) | > 100 µM (inactive) | > 100 µM (inactive) | > 100 µM (inactive) | 29.1 µM (inactive) | > 100 µM (inactive) | > 100 µM (inactive)
COc1ccc(/C=C2\C[C@H]3[C@@H]4CC=C5C[C@@H](OC(C)=O)CC[C@]5(C)[C@H]4CC[C@]3(C)C2=O)cc1OC | 38.7 µM (inactive) | 28.5 µM (inactive) | 63.1 µM (inactive) | > 100 µM (inactive) | 58.3 µM (inactive) | 68.9 | 31.7 µM (inactive) | 41.2 µM (inactive) | 38.4 µM (inactive) | 34.7 µM (inactive) | 33.9 µM (inactive) | 23.5 µM (inactive) | 63.4 µM (inactive) | 11.3 µM (inactive) | – | 42.3 µM (inactive) | 54.8 µM (inactive) | 24.7 µM (inactive) | > 100 µM (inactive) | 12.2 µM (inactive)
O=c1ccn(C2OC(CO)C(P(=O)(O)O)C2O)c(=O)[nH]1 (configuration not stated) | > 100 µM (inactive) | > 100 µM (inactive) | > 100 µM (inactive) | > 100 µM (inactive) | > 100 µM (inactive) | > 100 | > 100 µM (inactive) | > 100 µM (inactive) | > 100 µM (inactive) | > 100 µM (inactive) | > 100 µM (inactive) | > 100 µM (inactive) | > 100 µM (inactive) | > 100 µM (inactive) | – | > 100 µM (inactive) | > 100 µM (inactive) | > 100 µM (inactive) | > 100 µM (inactive) | > 100 µM (inactive)
